Laboratory results published in the NIST ThermoML archive (doi:10.1016/j.jct.2012.05.012).

Columns and labels:
[1] = for mass density: 101 kPa, Buoyancy - hydrostatic balance; for mass density / surface tension liquid-gas: Liquid; for surface tension liquid-gas: Maximal bubble pressure
[2] = refractive index (Na D-line) (dimensionless); conditions: 101 kPa, Liquid, Standard Abbe refractometry

CCCCn1cc[n+](C)c1.NCC(=O)[O-] [1-butyl-3-methylimidazolium glycinate]
Conditions	mass density, [1] [kg/m3]	refractive index, [2]	surface tension liquid-gas, [1] [mN/m]
283.15 K	1120.6	–	44.3
288.15 K	1117.4	–	44
293.15 K	1114.2	1.5091	43.8
298.15 K	1110.9	1.5085	43.5
303.15 K	1107.8	1.5068	43.2
308.15 K	1104.7	1.5049	42.9
313.15 K	1101.6	1.5038	42.6
318.15 K	1098.6	1.5029	42.2
323.15 K	1095.5	1.5019	41.8
328.15 K	1092.3	–	41.5

Conditions	Glass transition temperature [°C]
[1], Glass, DTA	-81.80
